pIC50, pKd: −log10 of the molar value. The source made the active and inactive calls. No cut-off for these calls is given here.
Columns and labels:
Homo sapiens [1] = organism: Homo sapiens; test: Induction of human HSP90 stabilization assessed as protection against pronase E-mediated hydrolysis at 25 to 50 uM incubated for 1 hr by DART assay; details: dose 25-50 µM
HCT-116 [2] = test: Induction of cell cycle arrest in human HCT-116 cells assessed as downregulation of CDK1 protein level by Western blot analysis; format: functional, cell-based
HCT-116 [3] = test: Antitumor activity against human HCT-116 cells xenografted in male BALB/c mouse assessed as tumor growth inhibition at 10 mg/kg, ip measured every two days for upto 20 days relative to control; format: functional; details: HCT-116, 480 h, time <= 20 day, read-out: TGI
[4] = AUC (0 to infinity) in male ICR (CD-1) mouse at 20 mg/kg, po measured upto 24 hrs by LC-MS/MS analysis; format: ADME, organism-based; details: in vivo
[5] = Toxicity in male BALB/c mouse xenografted with human HCT-116 cells assessed as effect on body weight at 10 to 40 mg/kg, ip measured every two days for upto 20 days; format: organism-based; details: in vivo, 480 h, dose 10-40 mg/kg, time < 20 day
[6] = Cmax in male ICR (CD-1) mouse at 10 mg/kg, ip measured upto 24 hrs by LC-MS/MS analysis; format: ADME, organism-based; details: in vivo
[7] = Toxicity in male BALB/c mouse xenografted with human HCT-116 cells assessed as histological change in liver at 10 to 40 mg/kg, ip by H and E staining based optical microscopic analysis; format: organism-based; details: in vivo, dose 10-40 mg/kg
[8] = target: T1, Heat shock protein HSP90 (Homo sapiens) (UniProt P07900+P08238); test: Induction of thermal stabilization of Hsp90 in human HCT-116 cells at 37 to 82 degree C at 100 uM incubated for 1 hr by thermal shift assay; format: cell-based
RKO [9] = test: Induction of cell cycle arrest in human RKO cells assessed as downregulation of Cyclin D1 protein level by Western blot analysis; format: functional, cell-based
HCT-116 [10] = test: Antiproliferative activity against human HCT-116 cells incubated for 24 hrs by MTT assay; format: functional, cell-based; details: HCT-116, 24 h
[11] = Tmax in male ICR (CD-1) mouse at 20 mg/kg, po measured upto 24 hrs by LC-MS/MS analysis; format: ADME, organism-based; details: in vivo
[12] = Bioavailability in male ICR (CD-1) mouse at 10 mg/kg, ip measured upto 24 hrs by LC-MS/MS analysis; format: ADME, organism-based; details: in vivo
HCT-116 [13] = test: Antitumor activity against human HCT-116 cells xenografted in male BALB/c mouse assessed as induction of apoptosis by measuring increase cleaved-caspase-3 protein level at 10 to 40 mg/kg, ip by Immunohistochemical staining based analysis; format: functional, organism-based; details: dose 10-40 mg/kg
[14] = Toxicity in male BALB/c mouse xenografted with human HCT-116 cells assessed as histological change in spleen at 10 to 40 mg/kg, ip by H and E staining based optical microscopic analysis; format: organism-based; details: in vivo, dose 10-40 mg/kg
[15] = target: T1, Heat shock protein HSP90 (Homo sapiens); test: Induction of thermal stabilization of Hsp90 in human RKO cells at 37 to 82 degree C at 100 uM incubated for 1 hr by thermal shift assay; format: cell-based
[16] = Oral bioavailability in male ICR (CD-1) mouse at 20 mg/kg measured upto 24 hrs by LC-MS/MS analysis; format: ADME, organism-based; details: in vivo
HCT-116 [17] = test: Inhibition of Wnt/beta-catenin signaling pathway in human HCT-116 cells assessed as induction of beta-catenin degradation in presence of MG132 by Western blot analysis; format: cell-based
RKO [18] = test: Antiproliferative activity against human RKO cells assessed as inhibition of DNA replication at 10 uM incubated for 22 hrs by fluorescence based microscopic analysis; format: functional, cell-based
RKO [19] = test: Inhibition of Hsp90/beta-catenin in human RKO cells at 6 to 10 uM incubated for 24 hrs by co-immunoprecipitation analysis; format: cell-based; details: dose 6-10 µM
HCT-116 [20] = test: Induction of cell cycle arrest in human HCT-116 cells assessed as downregulation of Cyclin D1 protein level by Western blot analysis; format: functional, cell-based
HCT-116 [21] = test: Antiproliferative activity against human HCT-116 cells assessed as inhibition of DNA proliferation at 10 uM incubated for 22 hrs by fluorescence based microscopic analysis; format: functional, cell-based
Homo sapiens [22] = organism: Homo sapiens; test: Binding affinity to recombinant N-terminal GST-tagged human HSP90 (1 to 224 residues) extracted from Escherichia coli BL21 (DE3) cells at 200 uM in presence of biotin probe 1 by pulldown analysis
RKO [23] = test: Induction of cell cycle arrest in human RKO cells assessed as downregulation of Cyclin A2 protein level by Western blot analysis; format: functional, cell-based
[24] = Half life in male ICR (CD-1) mouse at 20 mg/kg, po measured upto 24 hrs by LC-MS/MS analysis; format: ADME, organism-based; details: in vivo
HCT-116 [25] = test: Inhibition of Wnt/beta-catenin signaling pathway in human HCT-116 cells assessed as downregulation of beta-catenin expression incubated for 24 hrs by qRT-PCR analysis; format: cell-based; details: dose <= 10.0 µM
[26] = Toxicity in male BALB/c mouse xenografted with human HCT-116 cells assessed as effect on serum ALT level at 10 to 40 mg/kg, ip by biochemical analysis; format: organism-based; details: in vivo, dose 10-40 mg/kg
RKO [27] = test: Induction of cell cycle arrest in human RKO cells assessed as downregulation of Cyclin B1 protein level by Western blot analysis; format: functional, cell-based
[28] = AUC (0 to infinity) in male ICR (CD-1) mouse at 5 mg/kg, iv measured upto 24 hrs by LC-MS/MS analysis; format: ADME, organism-based; details: in vivo
HCT-116 [29] = test: Inhibition of colony formation in human HCT-116 cells incubated for 24 hrs by crystal violet staining based analysis; format: functional, cell-based; details: dose 6-10 µM
RKO [30] = test: Inhibition of Wnt/beta-catenin signaling pathway in human RKO cells assessed as induction of beta-catenin degradation in presence of MG132 by Western blot analysis; format: cell-based
[31] = Binding affinity to recombinant N-terminal GST-tagged human HSP90 (1 to 224 residues) extracted from Escherichia coli BL21 (DE3) cells assessed as dissociation constant by surface plasmon resonance assay
HCT-116 [32] = test: Induction of cell cycle arrest in human HCT-116 cells assessed as downregulation of Cyclin B1 protein level by Western blot analysis; format: functional, cell-based
[33] = Half life in male ICR (CD-1) mouse at 10 mg/kg, ip measured upto 24 hrs by LC-MS/MS analysis; format: ADME, organism-based; details: in vivo
[34] = Toxicity in Kunming mouse assessed as drug tolerance at 200 to 400 mg/kg, ip; format: organism-based; details: in vivo, dose 200-400 mg/kg
[35] = Toxicity in male BALB/c mouse xenografted with human HCT-116 cells assessed as effect on serum ALP level at 10 to 40 mg/kg, ip by biochemical analysis; format: organism-based; details: in vivo, dose 10-40 mg/kg
[36] = Toxicity in Kunming mouse assessed as behavioural changes at 200 to 400 mg/kg, ip; format: organism-based; details: in vivo, dose 200-400 mg/kg
[37] = Toxicity in male BALB/c mouse xenografted with human HCT-116 cells assessed as histological change in lung at 10 to 40 mg/kg, ip by H and E staining based optical microscopic analysis; format: organism-based; details: in vivo, dose 10-40 mg/kg
HCT-116 [38] = test: Induction of cell cycle arrest in human HCT-116 cells assessed as accumulation of cells at S phase incubated for 24 hrs by PI staining based flow cytometry; format: functional; details: dose 6-10 µM

SMILES: CC12c3ccc(Cl)cc3CCN1CCc1c2[nH]c2ccc(Cl)cc12 (stereo not drawn)
- Activity (Homo sapiens [1]): Active
- Activity (HCT-116 [2]): Dose-Dependent Effect
- inhibition in vivo at 10 mg/kg (HCT-116 [3]): 57.4%
- AUC(0-inf) [4]: 2720 ng·h/mL
- Activity [5]: Non-Toxic
- Cmax [6]: 1450 ng/mL
- Activity [7]: Non-Toxic
- Activity [8]: Active
- Activity (RKO [9]): Dose-Dependent Effect
- pIC50 (HCT-116 [10]): 5.08
- Tmax [11]: 0.33 h
- bioavailability [12]: 97%
- Activity (HCT-116 [13]): Active
- Activity [14]: Non-Toxic
- Activity [15]: Active
- bioavailability [16]: 40%
- inhibition (HCT-116 [17]): inactive
- Activity (RKO [18]): Active
- inhibition (RKO [19]): Dose-Dependent Effect
- Activity (HCT-116 [20]): Dose-Dependent Effect
- Activity (HCT-116 [21]): Active
- Activity (Homo sapiens [22]): Active
- Activity (RKO [23]): Dose-Dependent Effect
- half-life [24]: 2.6 h
- inhibition (HCT-116 [25]): Dose-Dependent Effect
- Activity [26]: Non-Toxic
- Activity (RKO [27]): Dose-Dependent Effect
- AUC(0-inf) [28]: 1500 ng·h/mL
- inhibition (HCT-116 [29]): Dose-Dependent Effect
- inhibition (RKO [30]): inactive
- pKd [31]: 4.91
- Activity (HCT-116 [32]): Dose-Dependent Effect
- half-life [33]: 3.55 h
- Activity [34]: Non-Toxic
- Activity [35]: Non-Toxic
- Activity [36]: Non-Toxic
- Activity [37]: Non-Toxic
- Activity (HCT-116 [38]): Dose-Dependent Effect

Reference: ChEMBL document CHEMBL5608195, “Identification and biological evaluation of fused tetrahydroisoquinoline derivatives as Wnt/β-catenin signaling inhibitors to suppress colorectal cancer” (Eur J Med Chem, 2024)
